In PubChem BioAssay AID200 (DTP/NCI, 2004):
“And” between values parts separate entries of the source, which are not always exact repeats. Identical values can stand only once. Toxic doses and inconclusive results are not listed. Where a SMILES comes first, the peptide text is derived from it. [ ]: non-standard residue; d: D form. The star is where a group is joined. Cbz = O=C(OCc1ccccc1)*; Nva = CCC[CH](N)C(=O)O

Tested on: B6C3F1 mice, B16 melanoma ip, median survival T/C
Test: NCI In Vivo Anticancer Drug Screen. Data for tumor model B16 Melanoma (intraperitoneal) in B6C3F1 mice
Details: endpoint: median survival time, higher = longer survival
Experimental: The antitumor activity of compounds was measured in mice bearing transplantable tumors. Survival or tumor size were measured and the results are expressed as the measurement made in the treated group (T) divided by the measurement made in the vehicle treated control group (C). The tumor model used in this assay is B16 Melanoma (intraperitoneal) in B6C3F1 mice

[1] = dose: 3.12 mg/kg/injection, schedule: Q01DX009 (ip), vehicle: Klucel (hydroxypropylcellulose) (HPC)
[2] = dose: 6.25 mg/kg/injection, schedule: Q01DX009 (ip), vehicle: Klucel (hydroxypropylcellulose) (HPC)
[3] = dose: 12.5 mg/kg/injection, schedule: Q01DX009 (ip), vehicle: Klucel (hydroxypropylcellulose) (HPC)
[4] = dose: 100.0 mg/kg/injection, schedule: Q01DX009 (ip), vehicle: Klucel (hydroxypropylcellulose) (HPC)
[5] = dose: 200.0 mg/kg/injection, schedule: Q01DX009 (ip), vehicle: Klucel (hydroxypropylcellulose) (HPC)
[6] = dose: 400.0 mg/kg/injection, schedule: Q01DX009 (ip), vehicle: Klucel (hydroxypropylcellulose) (HPC)
[7] = dose: 100.0 mg/kg/injection, schedule: Q01DX009 (ip), vehicle: saline with Tween-80
[8] = dose: 10.0 mg/kg/injection, schedule: Q01DX009 (ip), vehicle: saline with Tween-80
[9] = dose: 50.0 mg/kg/injection, schedule: Q01DX009 (ip), vehicle: Klucel (hydroxypropylcellulose) (HPC)
[10] = dose: 6.25 mg/kg/injection, schedule: Q01DX009 (ip), vehicle: saline
[11] = dose: 12.5 mg/kg/injection, schedule: Q01DX009 (ip), vehicle: saline
[12] = dose: 25.0 mg/kg/injection, schedule: Q01DX009 (ip), vehicle: saline
[13] = dose: 50.0 mg/kg/injection, schedule: Q01DX009 (ip), vehicle: saline
[14] = dose: 100.0 mg/kg/injection, schedule: Q01DX009 (ip), vehicle: saline
[15] = dose: 200.0 mg/kg/injection, schedule: Q01DX009 (ip), vehicle: saline
[16] = dose: 25.0 mg/kg/injection, schedule: Q01DX009 (ip), vehicle: Klucel (hydroxypropylcellulose) (HPC)
[17] = dose: 12.5 mg/kg/injection, schedule: Q01DX009 (ip), vehicle: suspension in saline
[18] = dose: 25.0 mg/kg/injection, schedule: Q01DX009 (ip), vehicle: suspension in saline
[19] = dose: 50.0 mg/kg/injection, schedule: Q01DX009 (ip), vehicle: suspension in saline
[20] = dose: 100.0 mg/kg/injection, schedule: Q01DX009 (ip), vehicle: suspension in saline
[21] = dose: 12.5 mg/kg/injection, schedule: Q01DX009 (ip), vehicle: saline with Tween-80
[22] = dose: 25.0 mg/kg/injection, schedule: Q01DX009 (ip), vehicle: saline with Tween-80
[23] = dose: 50.0 mg/kg/injection, schedule: Q01DX009 (ip), vehicle: saline with Tween-80
[24] = dose: 20.0 mg/kg/injection, schedule: Q01DX009 (ip), vehicle: saline with Tween-80
[25] = dose: 40.0 mg/kg/injection, schedule: Q01DX009 (ip), vehicle: saline with Tween-80
[26] = dose: 80.0 mg/kg/injection, schedule: Q01DX009 (ip), vehicle: saline with Tween-80

## O=NN(CCF)C(=O)NC1CCCCC1
[1]
  T/C: 116 % of control
[2]
  T/C: 166 % of control
dose: 12.0 mg/kg/injection, schedule: Q01DX001 (ip), vehicle: Klucel (hydroxypropylcellulose) (HPC)
  T/C: 121 % of control
[3]
  T/C: 333 % of control
dose: 25.0 mg/kg/injection, schedule: Q01DX001 (ip), vehicle: Klucel (hydroxypropylcellulose) (HPC)
  T/C: 162 % of control
dose: 100.0 mg/kg/injection, schedule: Q01DX001 (ip), vehicle: Klucel (hydroxypropylcellulose) (HPC)
  T/C: 216 % of control

## CCCC(NC(=O)OCc1ccccc1)C(=O)NC(Cc1ccccc1)C(N)=O (stereo not given) (Cbz-[Nva]-Phe-NH2; configuration not given here)
[4]
  T/C: 101 % of control
[5]
  T/C: 91 % of control
[6]
  T/C: 89 % of control

## CCN(CC)c1ccc(N=Nc2ccc(C)cc2)cc1
[7]
  T/C: 96 % of control
dose: 200.0 mg/kg/injection, schedule: Q01DX009 (ip), vehicle: saline with Tween-80
  T/C: 93 % of control
dose: 400.0 mg/kg/injection, schedule: Q01DX009 (ip), vehicle: saline with Tween-80
  T/C: 96 % of control

## NC1(C(=O)O)CCCc2ccc(N(CCCl)CCCl)cc21 (stereo not given)
dose: 2.5 mg/kg/injection, schedule: Q01DX009 (ip), vehicle: saline
  T/C: 120 % of control
[8]
  T/C: 121 % of control
dose: 10.0 mg/kg/injection, schedule: Q01DX009 (ip), vehicle: saline
  T/C: 157 % of control
dose: 20.0 mg/kg/injection, schedule: Q01DX009 (ip), vehicle: saline
  T/C: 189 % of control

## CCCC1CC(C(=O)NC(C(C)O)C2OC(SC)C(O)C(O)C2O)N(C)C1 (stereo not given)
[9]
  T/C: 113 % of control
[4]
  T/C: 95 % of control
[5]
  T/C: 100 % of control
[6]
  T/C: 89 % of control

## C1CNCOC1
[10]
  T/C: 112 % of control and 95 % of control
[11]
  T/C: 102 % of control and 104 % of control
[12]
  T/C: 96 % of control and 101 % of control
[13]
  T/C: 96 % of control and 103 % of control
[14]
  T/C: 112 % of control
[15]
  T/C: 105 % of control

## CSc1ncc2ncn(C3OC(CO)C(O)C3O)c2n1 (stereo not given)
[16]
  T/C: 101 % of control and 105 % of control
[9]
  T/C: 95 % of control and 98 % of control
[4]
  T/C: 103 % of control
[5]
  T/C: 106 % of control
[6]
  T/C: 110 % of control and 89 % of control

## Nc1ncn(C2OC(CO)C(O)C2O)c(=O)n1 (stereo not given)
dose: 0.37 mg/kg/injection, schedule: Q01DX009 (ip), vehicle: saline
  T/C: 106 % of control
dose: 0.75 mg/kg/injection, schedule: Q01DX009 (ip), vehicle: saline
  T/C: 111 % of control
dose: 1.5 mg/kg/injection, schedule: Q01DX009 (ip), vehicle: saline
  T/C: 112 % of control
dose: 6.0 mg/kg/injection, schedule: Q01DX009 (ip), vehicle: saline
  T/C: 114 % of control
[10]
  T/C: 105 % of control
dose: 12.0 mg/kg/injection, schedule: Q01DX009 (ip), vehicle: saline
  T/C: 112 % of control
[11]
  T/C: 112 % of control
[12]
  T/C: 117 % of control and 119 % of control
[13]
  T/C: 116 % of control and 117 % of control (2×)
[15]
  T/C: 153 % of control

## CCOC(=O)C1=C(C#N)C2(CCC(OCc3ccccc3)CC2)C(=O)O1 (stereo not given)
[11]
  T/C: 105 % of control
[17]
  T/C: 105 % of control
[12]
  T/C: 101 % of control
[18]
  T/C: 96 % of control
[13]
  T/C: 94 % of control
[19]
  T/C: 107 % of control
[14]
  T/C: 111 % of control
[20]
  T/C: 109 % of control
dose: 200.0 mg/kg/injection, schedule: Q01DX009 (ip), vehicle: suspension in saline
  T/C: 107 % of control

## Cn1c(N)c(N=Nc2ccccc2Cl)c(=O)n(C)c1=O
dose: 6.25 mg/kg/injection, schedule: Q01DX009 (ip), vehicle: saline with Tween-80
  T/C: 92 % of control
[21]
  T/C: 101 % of control
[22]
  T/C: 89 % of control
[23]
  T/C: 92 % of control and 104 % of control
[7]
  T/C: 104 % of control

## COC(=Nc1ccccc1)SSC(C)C
dose: 0.78 mg/kg/injection, schedule: Q01DX009 (ip), vehicle: saline with Tween-80
  T/C: 112 % of control
dose: 1.56 mg/kg/injection, schedule: Q01DX009 (ip), vehicle: saline with Tween-80
  T/C: 116 % of control
dose: 3.12 mg/kg/injection, schedule: Q01DX009 (ip), vehicle: saline with Tween-80
  T/C: 87 % of control
[21]
  T/C: 86 % of control and 104 % of control
[22]
  T/C: 87 % of control and 97 % of control
[23]
  T/C: 88 % of control
[7]
  T/C: 102 % of control

## ClCc1ccc(Oc2ccc(CCl)cc2)cc1
[1]
  T/C: 101 % of control
[2]
  T/C: 98 % of control
[3]
  T/C: 107 % of control
[16]
  T/C: 112 % of control
[9]
  T/C: 93 % of control

## [Cl][Pt+2][Cl].[NH-]c1ccc(C(=O)c2ccccc2)cc1[NH-]
[24]
  T/C: 109 % of control and 107 % of control
[25]
  T/C: 114 % of control and 116 % of control
[26]
  T/C: 112 % of control and 115 % of control
dose: 160.0 mg/kg/injection, schedule: Q01DX009 (ip), vehicle: saline with Tween-80
  T/C: 116 % of control
dose: 320.0 mg/kg/injection, schedule: Q01DX009 (ip), vehicle: saline with Tween-80
  T/C: 110 % of control and 121 % of control

## O=c1[nH]c(=O)n(C2CC(O)C(CO)O2)cc1Br (stereo not given)
[16]
  T/C: 92 % of control
[9]
  T/C: 110 % of control
[4]
  T/C: 110 % of control
[5]
  T/C: 116 % of control
[6]
  T/C: 114 % of control
dose: 800.0 mg/kg/injection, schedule: Q01DX009 (ip), vehicle: Klucel (hydroxypropylcellulose) (HPC)
  T/C: 109 % of control

## COc1cc2c3c(cccc3c1)C(=O)N(CCN(C)C)C2=O
dose: 5.0 mg/kg/injection, schedule: Q01DX009 (ip), vehicle: saline with Tween-80
  T/C: 119 % of control and 95 % of control
[8]
  T/C: 115 % of control and 100 % of control
[24]
  T/C: 110 % of control and 100 % of control and 105 % of control
[25]
  T/C: 109 % of control and 121 % of control and 104 % of control
[26]
  T/C: 107 % of control

## CCN(CC)CCNc1ccc(C)c2sc3ccc(O)cc3c(=O)c12
[23]
  T/C: 150 % of control
[7]
  T/C: 191 % of control

## Cc1nc2ccccc2c(C(=O)NO)[n+]1[O-]
dose: 3.13 micrograms/kg/injection, schedule: Q01DX009 (ip), vehicle: other
  T/C: 100 % of control
dose: 6.25 micrograms/kg/injection, schedule: Q01DX009 (ip), vehicle: other
  T/C: 104 % of control
dose: 12.5 micrograms/kg/injection, schedule: Q01DX009 (ip), vehicle: other
  T/C: 122 % of control
dose: 25.0 micrograms/kg/injection, schedule: Q01DX009 (ip), vehicle: other
  T/C: 110 % of control

## CN(C(=S)S(=O)(=O)C12CC3CC(CC(C3)C1)C2)c1ccccc1
dose: 1.56 mg/kg/injection, schedule: Q01DX009 (ip), vehicle: Klucel (hydroxypropylcellulose) (HPC)
  T/C: 104 % of control
[1]
  T/C: 98 % of control
[2]
  T/C: 104 % of control
[3]
  T/C: 101 % of control
[16]
  T/C: 114 % of control
[9]
  T/C: 104 % of control

## CN1CCCN(C(c2ccccc2)c2ccc(Br)cc2)CC1 (stereo not given)
dose: 18.0 mg/kg/injection, schedule: Q01DX009 (ip), vehicle: saline
  T/C: 98 % of control
dose: 36.0 mg/kg/injection, schedule: Q01DX009 (ip), vehicle: saline
  T/C: 92 % of control

## O=c1[nH]cnc2[nH]ncc12
[17]
  T/C: 103 % of control
[18]
  T/C: 112 % of control
[19]
  T/C: 97 % of control
[20]
  T/C: 88 % of control

## C=C1C(=O)OCC1C(=O)O (stereo not given)
dose: 4.0 mg/kg/injection, schedule: Q01DX009 (ip), vehicle: saline
  T/C: 102 % of control and 103 % of control
dose: 8.0 mg/kg/injection, schedule: Q01DX009 (ip), vehicle: saline
  T/C: 102 % of control
dose: 16.0 mg/kg/injection, schedule: Q01DX009 (ip), vehicle: saline
  T/C: 88 % of control and 93 % of control
dose: 32.0 mg/kg/injection, schedule: Q01DX009 (ip), vehicle: saline
  T/C: 93 % of control
